Measurements from patent US9675715B2, “Contrast agent for photoacoustic imaging” (CANON KABUSHIKI KAISHA, priority 2012, dated 2017).
Entries after “also recorded” stand apart in the source; their conditions may differ.

Tests used:
[1] = test system: sentinel lymph node (mouse popliteal lymph node); assay: Accumulation in sentinel lymph node, absorbance of lymph node extracts; type: in vivo; conditions: 1 day after administration, 10 nmol dye, accumulation of ICG defined as 1
Experimental: In examples of the present invention, the transfer of the contrast agent for PAI into a sentinel lymph node (SLN) was evaluated by the use of a mouse popliteal lymph node. Ten microliters of the contrast agent was administered subcutaneously into the plantar surface of a nude mouse.
As a comparative example, mouse popliteal lymph nodes were removed 1 day after the administration of various contrast agents, homogenized, and extracted. The resulting extracts were subjected to absorbance measurement.
Accumulation rates were each calculated on the basis of the following formula: Accumulation rate={(absorbance of removed mouse popliteal lymph node)/(absorbance corresponding to amount of sample administered)}×100
After the calculation of the accumulation, the accumulation ratios of various materials were calculated when the accumulation 1 day after the administration of ICG was defined as 1.
According to “Evaluation example of accumulation in sentinel lymph node”, the accumulation in a sentinel lymph node was evaluated. In this example, 10 nmol of the contrast agent in terms of the amount of the dye was administered to a mouse.

[2] = test system: N87 cell line tumor; assay: Amount transferred into tumor mass, fluorescence imaging of N87 tumor-bearing mice; type: in vivo, mouse; conditions: 1 day after administration, fluorescence ROI of tumor site, relative to ROI value of ICG
Experimental: The tumor-bearing mice were prepared by subcutaneously implanting a human gastric cancer cell line (N87) or a human cervical cancer cell line (HeLa) into nude mice. Then 130 nmol of a contrast agent in terms of the amount of the dye was administered into each of the tumor-bearing mice. […] As a comparative example, fluorescence imaging of the tumor-bearing mice was performed 1 day after the administration. Fluorescence imaging was performed with IVIS (registered trademark) Imaging System to measure fluorescence intensity in a region of interest (ROI) of the tumor site.
The tumor accumulation 1 day after the administration was evaluated by fluorescence. The accumulation in ROI of the tumor site was calculated.

[3] = Hydrodynamic average particle size by dynamic light scattering; type: physicochemical; conditions: DLS-8000
From the text: In this embodiment, the particle size of the particles may be determined by measuring the hydrodynamic average particle size using the dynamic light scattering (DLS) method with a dynamic light scattering spectrophotometer (DLS-8000, manufactured by Otsuka Electronics Co., Ltd).
The ICG-encapsulating micellar particles refer to micellar particles in which ICG is contained in surfactant micelles by a known emulsification technique.

[4] = test system: cerebral blood vessels; conditions: rat, free ICG administered in blood, NPL 1; cited from earlier work
[5] = Blood accumulation in Colon 26 tumor model mice; type: in vivo; conditions: BALB/c Slc-nu/nu, mouse, intravenous, 13 nmol in terms of ICG, read-out: Blood accumulation 1 day after administration
Experimental: (§1) Tumor model mice were prepared by subcutaneously implanting Colon 26 cells into BALB/c Slc-nu/nu mice.
(§2) Tumor model mice were prepared by subcutaneously implanting Colon 26 cells into BALB/c Slc-nu/nu mice. […] Furthermore, in this example, an aqueous solution of ICG (available from Pharmaceutical and Medical Device Regulatory Science of Japan) was used as a control sample.

[6] = Accumulation of contrast agent in Colon 26 tumor, dye extraction and fluorescence; type: in vivo; conditions: BALB/c Slc-nu/nu, mouse, intravenous, 13 nmol in terms of ICG
Experimental: as §1, §2

[7] = known; cited from earlier work
[8] = test system: sentinel lymph node (mouse popliteal lymph node); assay: Photoacoustic imaging of sentinel lymph node after subcutaneous plantar administration; type: in vivo; conditions: photoacoustic imaging 1 day after subcutaneous administration into plantar surface of nude mouse, 130 nmol dye
Experimental: (§3) A commercially available photoacoustic imaging apparatus (Nexus128, manufactured by Endra Inc.) was used. Photoacoustic signals were measured at predetermined timings before and after the administration of a prepared contrast agent for PAI, and three-dimensional reconstruction data was acquired for each timing. The photoacoustic signal intensity in a region of interest (ROI) was measured on the basis of the resulting three-dimensional reconstruction data using software (GEHC MICROVIEW, GE Healthcare) or the like.

[9] = test system: tumor site; assay: Photoacoustic signal intensity at tumor site 1 day after administration, relative to ICG; type: in vivo, mouse
Experimental: as §3

## CC1(C)C(/C=C/C=C/C=C/C=C2/N(CCCCS(=O)(=O)[O-])c3ccc4ccccc4c3C2(C)C)=[N+](CCCCS(=O)(=O)[O-])c2ccc3ccccc3c21.[Na+] [ICG, indocyanine green]
[1]
  Relative accumulation: 1.0
[2]
  Relative tumor accumulation: 1.0
[3]
  Hydrodynamic average particle size: unmeasurable
[4]
  time after administration at which photoacoustic signal intensity is reduced to a level equal to that of blood: several tens of minutes
[5]
  tissue uptake at 1 day: 0.2 %ID/g
[6]; tumor / blood, 1 day after administration, read-out: Ratio of accumulation (tumor/blood)
  Kp at 24 h: 0.5
[6]; tumor tissue (Colon 26), Colon 26 tumor, 24 hours, read-out: Tumor accumulation 1 day after administration
  tissue uptake at 24 h: 0.1 %ID/g
[7]
  half-life in blood: about several minutes
[8]
  Visualization of SLN: substantially no photoacoustic signal was observed; also recorded: unvisualizable
[9]
  Relative photoacoustic signal intensity 1 day after administration (signal intensity in administration of ICG = 1.0): 1.0
